In one series the test system is BRAF in complex with MEK. Put plainly: BRAF-MEK stabilization in cells (MEK immunoprecipitation, Western). The class given is cell-based. As to conditions: 3 nM, 4 hours. From the text: (§1) The stabilization of ARAF, BRAF and CRAF in complex with MEK in MEK immunoprecipitates isolated from cellular lysates. For these studies, HCT-116 (colorectal cell line with KRAS G13D mutation), SKMEL-2 (melanoma cell line with NRAS Q61K mutation), HT-29 (colorectal cell line with BRAF Class I mutation), NCI-H1755 (lung cancer cell line with BRAF Class II mutation), and NCI-H1666 (lung cancer cell line with BRAF Class III mutation) models are used. The tumor cell lines are maintained in vitro as monolayer culture in medium at 37° C. in an atmosphere of 5% CO2 in air. Cell lines are treated with exemplary MEK inhibitors at a concentration of 3 nM for 4 hours. Cells are lysed and MEK is immunoprecipitated from the lysates overnight. Denatured immunoprecipitates are run on SDS-PAGE, transferred to nitrocellulose membranes and associated ARAF, BRAF, or CRAF are detected by Western analysis. Stabilization was defined as >1.5-fold induction of RAF-MEK interaction over vehicle control.

Another series deals with CRAF in complex with MEK. The series is described as follows: CRAF-MEK stabilization in cells (MEK immunoprecipitation, Western). The class given is cell-based. To be noted: HCT-116 and NCI-H1666 cells, 3 nM, 4 hours.
Description: as §1

Series [1] deals with 240 cell lines with known alterations in the MAPK pathway. The series is described as follows: MEK inhibitor sensitivity in 240 cell lines (Cell Titer Glo, 5 days). The class given is cell-based. As to conditions: cell lines with KRAS, NRAS, BRAF Class I and III mutations, CRAF-alterations. The procedure:
240 cell lines representative of multiple cancer indications with known alterations in the MAPK pathway, including KRAS, NRAS, HRAS, NF1, EGFR, BRAF and CRAF mutations, were seeded overnight in […], then treated with a 9-point dose response of exemplary MEK inhibitors (starting dose of 100 nM and 3-fold dilution) for 5 days. Cell viability was determined using a Cell Titer Glo (CTG) assay. Percent inhibition was calculated for all compounds utilizing staurosporine (1000 nM) treatment as a measure of maximal inhibition. IC50 and area under the curve (AUC) values were determined by fitting a variable slope, four parameters curve to the compound concentration to percent inhibition relationship.
(In ATP-based viability assays light output follows the ATP content of the culture.)

For series [2], the system named is HCT-116 xenograft (KRAS G13D). Put plainly: In vivo efficacy, HCT-116 xenograft model. Further details: species or system mouse. As to conditions: HCT-116 model, Day 20. Here is the method: (§2) The antitumor activity of exemplary MEK inhibitor compounds is evaluated in vivo using human cell line derived xenografts (CDX) grown in immunodeficient mice. For these studies, AsPC1 (pancreatic cell line with KRAS G12D mutation), NCI-H2122 (lung cell line with KRAS G12C mutation), and 5637 (bladder cell line with CRAF amplification) models are used. In addition, HCT-116 (colorectal cell line with KRAS G13D mutation), SKM-1 (AML cell line with KRAS K117N mutation), and OCI-AML-3 (AML cell line with NRAS Q61L mutation) models are used. The tumor cell lines (AsPC-1, NCI-H2122, 5637, and HCT-116 cells) are maintained in vitro as monolayer culture in medium at 37° C. in an atmosphere of 5% CO2 in air. The tumor cell lines (SKM-1 and OCI-AML-3 cells) are maintained in vitro as a suspension in medium at 37° C. in an atmosphere of 5% CO2 in air. The tumor cells are routinely sub-cultured before confluence by trypsin-EDTA treatment, not to exceed 4-5 passages. The cells growing in an exponential growth phase are harvested for tumor inoculation. AsPC1, NCI-H2122, and OCI-AML-3 tumors are implanted into Balb/c nude mice. HCT-116 tumors are implanted into Nu/Nu mice. 5637 and SKM-1 tumors are implanted into NOG mice. Each mouse is inoculated subcutaneously on the right flank with tumor cells in a 1:1 mixture with matrigel. Tumors are allowed to grow to approximately 150-200 mm^3. At this time, mice are assigned to groups such that the mean tumor volume is the same for each treatment group. The MEK inhibitor compound treatments are administrated to the tumor-bearing mice via oral gavage. Throughout the study, mouse body weight and tumor volume are recorded. The measurement of tumor size is conducted twice weekly with a caliper and recorded. The tumor volume (mm^3) is estimated using the formula: TV=a×b^2/2, where “a” and “b” are long and short diameters of a tumor, respectively.

The test system of the next series is pERK HCT-116 (G13D). Put plainly: pERK HCT-116 (G13D) ICW (4 hour). Type of series: cell-based. To be noted: Homo sapiens, read-out: pERK HCT-116 (G13D) ICW (4 hour): Average IC50 (nM).
Series [3] has as its system AsPC1 xenograft (KRAS G12D). The series is described as follows: In vivo efficacy, AsPC-1 xenograft model. Further details: species or system mouse. To be noted: AsPC-1 model, 3 mg/kg QD, Day 21. The procedure: The antitumor activity of exemplary MEK inhibitor compounds is evaluated in vivo using human cell line derived xenografts (CDX) grown in immunodeficient mice. For these studies, AsPC1 (pancreatic cell line with KRAS G12D mutation), NCI-H2122 (lung cell line with KRAS G12C mutation), and 5637 (bladder cell line with CRAF amplification) models are used. In addition, HCT-116 (colorectal cell line with KRAS G13D mutation), SKM-1 (AML cell line with KRAS K117N mutation), and OCI-AML-3 (AML cell line with NRAS Q61L mutation) models are used. The tumor cell lines (AsPC-1, NCI-H2122, 5637, and HCT-116 cells) are maintained in vitro as monolayer culture in medium at 37° C. in an atmosphere of 5% CO2 in air. The tumor cell lines (SKM-1 and OCI-AML-3 cells) are maintained in vitro as a suspension in medium at 37° C. in an atmosphere of 5% CO2 in air. The tumor cells are routinely sub-cultured before confluence by trypsin-EDTA treatment, not to exceed 4-5 passages. The cells growing in an exponential growth phase are harvested for tumor inoculation. AsPC1, NCI-H2122, and OCI-AML-3 tumors are implanted into Balb/c nude mice. HCT-116 tumors are implanted into Nu/Nu mice. 5637 and SKM-1 tumors are implanted into NOG mice. […] Throughout the study, mouse body weight and tumor volume are recorded. The measurement of tumor size is conducted twice weekly with a caliper and recorded. […]

The subject of series [4] is SKM-1 xenograft (KRAS K117N). The series is described as follows: In vivo efficacy, SKM-1 xenograft model. Further details: species or system mouse. As to conditions: SKM-1 model, Day 22. The procedure:
as §2

Where only a bound is given, the exact number is not on record here.

Take `CNS(=O)(=O)Nc1cccc(Oc2c(C(=O)NC3CC3)c(Nc3ccc(I)cc3F)n(C)c(=O)c2C)c1Cl` [Compound I-2, 4-(2-chloro-3-((N-methylsulfamoyl)amino)phenoxy)-N-cyclopropyl-2-((2-fluoro-4-iodophenyl)amino)-1,5-dimethyl-6-oxo-1,6-dihydropyridine-3-carboxamide]: the “Wild-type BRAF-MEK association” value in the series with BRAF in complex with MEK (HCT-116 and SKMEL-2 cells) is listed as “augmented”. In addition, the “mutant BRAF-MEK interaction” value in the series on BRAF in complex with MEK (HT-29 (BRAF Class I), NCI-H1755 (BRAF Class II), NCI-H1666 (BRAF Class III)) was “enhanced”. Besides, the “MEK inhibitor-induced MEK-CRAF stabilization” value in the series on CRAF in complex with MEK is on record as “stabilization was observed”. The “sensitivity compared to RAS/RAF wild-type cell lines” value in series [1] is “increased sensitivity”. Further, the “average body weight gain” value in series [2] (2 mg/kg QD) turned out to be 4%; in series [2] (3 mg/kg QOD), 5.5%; in series [2] (6 mg/kg QOD), 12.1%; in series [3] it was 2.4%. In addition, the “percent TGI” value in series [2] (2 mg/kg QD) was found to be 102.9%; in series [2] (3 mg/kg QOD), 98.1%; in series [2] (6 mg/kg QOD) it was 98%; in series [4] (1 mg/kg QD) it was 97.7%; in series [4] (6 mg/kg QOD), 96.2%. Moreover, in the series with pERK HCT-116 (G13D), the half-inhibitory concentration (IC50) (usually the concentration that inhibits the measured activity by half) was less than 100 nM. Besides, in series [3], the “percent TGI (tumor growth inhibition)” value was 83.4%. Also, the weight gain in series [4] (1 mg/kg QD) worked out at 1.2%; in series [4] (6 mg/kg QOD), 3.9%. Moreover, in series [4] (3 mg/kg QD), the “average body weight loss” value worked out at 1.2%.

(Values after patent US20230382863A1, “MEK INHIBITORS AND USES THEREOF” (Ikena Oncology, Inc., priority 2022, published 2023).)
